Measurements as given in ChEMBL document CHEMBL1201862, “PubChem BioAssay data set” (2004).
Active and inactive are the calls of the source.

Key:
[1] = target: T1, Nuclear receptor subfamily 0 group B member 1 (Homo sapiens, UniProt P51843); experiment: Luminescence-based cell-based high throughput dose response assay for inhibitors of the orphan nuclear receptor subfamily 0, group B, member 1 (DAX1; NR0B1). [Related pubchem assays (depositor defined):AID504766, AID504790]; type: functional
T1 sequence (P51843 whole entry): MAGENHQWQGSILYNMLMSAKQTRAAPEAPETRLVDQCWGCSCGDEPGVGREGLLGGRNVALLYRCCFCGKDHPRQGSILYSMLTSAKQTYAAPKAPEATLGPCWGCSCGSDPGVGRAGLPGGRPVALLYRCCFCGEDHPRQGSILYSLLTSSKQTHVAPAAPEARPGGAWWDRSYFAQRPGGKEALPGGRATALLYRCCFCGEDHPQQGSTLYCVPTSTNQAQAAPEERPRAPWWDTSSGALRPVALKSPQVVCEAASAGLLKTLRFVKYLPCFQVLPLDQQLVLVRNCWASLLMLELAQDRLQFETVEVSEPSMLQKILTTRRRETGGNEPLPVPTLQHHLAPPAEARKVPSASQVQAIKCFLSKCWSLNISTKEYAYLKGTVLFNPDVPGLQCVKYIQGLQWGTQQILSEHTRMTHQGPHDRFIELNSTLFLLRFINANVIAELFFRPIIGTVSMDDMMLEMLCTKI

HEK293 = experiment: cells; type: functional, cell-based; conditions: Homo sapiens
[2] = alpha-synuclein stem-loop luciferase translation blockers – H4 neuroglioma cells, luminescence, confirmation (AID 1988); type: functional, cell-based
[3] = luciferase reporter signal suppression in cells – H4 neuroglioma cells, luminescence, dose response (AID 1990); type: functional, cell-based
[4] = Luminescence Cell-Based Dose Response HTS to Identify Inhibitors of 5'UTR Stem-Loop Driven Prion Protein mRNA Translation in H4 Neuroglioblastoma Cells. [Related pubchem assays: 1827 (Project Summary), 1813 (Primary HTS)]; type: functional
INS1 = experiment: INS-1E survival protection against cytokine death – cell-based, luminescence, retest, dose response (AID 449756); type: functional; conditions: Rattus norvegicus;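 also: cell death triggered by IL-1 beta plus TNF-alpha plus IFN-gamma mixture; protective hits raise ATP signal compared with cytokine alone wells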
[5] = HEK-293T viability loss after treatment – luminescence, T-cell screen hits, cytotoxicity control for TCR NF-kB inhibitor project, dose response (AID 489026); type: functional, cell-based;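 also: cells exposed to compound about 14 hours before the viability readout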
Vero [6] = experiment: cells; type: functional; conditions: Chlorocebus sabaeus
[7] = viability of PTEN-deleted HCT116 cells – cell-based, HCT116 PTEN knockout, dose response (AID 1047); type: functional;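 also: HCT116 colon tumor cells with PTEN knocked out; cells exposed to compound for 60 hours before readout; potency for loss of cell viability measured by luminescence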
Vero [8] = experiment: cells; type: functional, cell-based; conditions: Chlorocebus sabaeus
[9] = viability of HCT116 lacking mutant beta-catenin – cell-based, human colon tumor, dose response (AID 1045); type: functional;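 also: HCT116 colon tumor cells with beta catenin knocked out; cells exposed to compound for 60 hours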
Cytochrome P450 3A4 = Cytochrome P450 3A4 (Homo sapiens, UniProt P08684);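 also: CYP3A4 tested as one member of a cytochrome P450 panel screen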
Cytochrome P450 2D6 = Cytochrome P450 2D6 (Homo sapiens, UniProt P10635);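 also: CYP2D6 member of a cytochrome P450 panel assay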
[10] = target: T2, Rac GTPase-activating protein 1 (Homo sapiens, UniProt Q9H0H5); experiment: blockers of MgcRacGAP-driven Rac1 GTP hydrolysis – biochemical, ADP Hunter fluorescence, primary and confirmatory, confirmation (AID 624330); type: functional
T2 sequence (Q9H0H5 whole entry): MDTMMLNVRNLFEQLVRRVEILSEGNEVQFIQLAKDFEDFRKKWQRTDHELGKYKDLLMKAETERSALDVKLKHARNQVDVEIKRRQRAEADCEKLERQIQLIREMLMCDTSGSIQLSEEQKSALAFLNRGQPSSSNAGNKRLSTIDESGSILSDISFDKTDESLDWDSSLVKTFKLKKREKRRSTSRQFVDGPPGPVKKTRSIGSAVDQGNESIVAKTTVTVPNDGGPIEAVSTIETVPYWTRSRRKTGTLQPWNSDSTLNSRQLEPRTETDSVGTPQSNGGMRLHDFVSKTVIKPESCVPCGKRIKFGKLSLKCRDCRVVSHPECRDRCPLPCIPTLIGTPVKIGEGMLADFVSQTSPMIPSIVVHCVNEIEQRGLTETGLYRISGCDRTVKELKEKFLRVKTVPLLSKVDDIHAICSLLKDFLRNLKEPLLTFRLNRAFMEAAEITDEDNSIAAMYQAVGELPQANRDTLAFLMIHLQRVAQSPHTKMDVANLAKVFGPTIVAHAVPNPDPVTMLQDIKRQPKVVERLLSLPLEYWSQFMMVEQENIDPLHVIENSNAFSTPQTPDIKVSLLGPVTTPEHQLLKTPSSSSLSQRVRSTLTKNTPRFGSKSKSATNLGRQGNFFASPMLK

Genome polyprotein = Genome polyprotein (dengue virus type 2, UniProt P29990); experiment: flavivirus cap methylation enzyme inhibition – biochemical, confirmation dose response, primary screen (AID 588689); type: functional
[11] = target: T3, Voltage-gated N-type calcium channel alpha-1B subunit/Amyloid beta A4 precursor protein-binding family A member 1 (Homo sapiens, UniProt Q00975+Q02410); type: protein assay
[12] = target: T3, Voltage-gated N-type calcium channel alpha-1B subunit/Amyloid beta A4 precursor protein-binding family A member 1; type: protein assay; remark: listed apart in the source
[13] = general cell-killing toxicity readout – plate reader, dry powder samples, cytotoxicity control for PAX8 inhibitor project, dose response (AID 743021); type: functional, cell-based
[14] = target: T4, Heat shock factor protein 1 (Mus musculus, UniProt P38532); experiment: enhancement of HSF1-driven luciferase signal – cell-based, NIH3T3, luminescence, dose retest, confirmation (AID 435004); type: functional;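 also: stress induced by proteasome inhibitor MG132 added 30 min after compound; luciferase reporter driven by HSF1 response element in NIH3T3 cells; actives raise luminescence as potentiators of the MG132 stress response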
T4 sequence (P38532 whole entry): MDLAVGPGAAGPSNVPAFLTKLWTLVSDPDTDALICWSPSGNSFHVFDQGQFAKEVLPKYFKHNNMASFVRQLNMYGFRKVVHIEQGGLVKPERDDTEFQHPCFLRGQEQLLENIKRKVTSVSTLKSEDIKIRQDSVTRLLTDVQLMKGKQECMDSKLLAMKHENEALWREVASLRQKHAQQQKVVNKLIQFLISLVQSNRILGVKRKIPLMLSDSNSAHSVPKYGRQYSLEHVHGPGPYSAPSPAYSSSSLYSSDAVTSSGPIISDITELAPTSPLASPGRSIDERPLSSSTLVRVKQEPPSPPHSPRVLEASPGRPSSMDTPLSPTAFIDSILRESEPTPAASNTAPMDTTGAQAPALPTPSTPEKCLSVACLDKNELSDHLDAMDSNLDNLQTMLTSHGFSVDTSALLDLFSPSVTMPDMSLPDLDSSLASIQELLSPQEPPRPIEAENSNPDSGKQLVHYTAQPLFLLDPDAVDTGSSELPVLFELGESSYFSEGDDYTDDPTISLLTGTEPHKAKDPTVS

Paired box protein Pax-8 = Paired box protein Pax-8 (Homo sapiens, UniProt Q06710); experiment: PAX8 transcriptional activity inhibition in RMG-I – RMG-I cells, luciferase, cherry-pick, dose response (AID 687027); type: functional, cell-based;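 also: luciferase reporter driven by Pax8 target thyroperoxidase promoter measured by SteadyGlo luminescence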
[15] = Trypanosoma cruzi growth suppression in host cells – NIH3T3 host cells, beta-gal luminescence, confirmation (AID 2044); type: functional, cell-based;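 also: intracellular parasites grown in NIH/3T3 mouse fibroblasts as host cells; luminescent beta-galactosidase reporter signal from transgenic T. cruzi replicating inside host cells; inhibitors lower the luminescence signal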
cells [16] = type: functional, cell-based
[17] = decrease of insulin promoter-GFP reporter – imaging, high-content screening, mouse beta cells (AID 1628); type: functional; conditions: MIN6
Streptococcus = experiment: GAS UMAA2166 growth inhibition – luminescence, BacTiterGlo, counter-screen for streptokinase expression inhibitor project, dose response (AID 1915); type: functional, organism-based;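 also: potency for reduction of bacterial viability or growth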
[18] = test system: Streptococcus sp. 'group A'; experiment: Streptococcus pyogenes SK(-)GAS viability under kanamycin – luminescence, BacTiterGlo, confirmation, counter-screen for streptokinase expression inhibitor project, dose response (AID 1900); type: functional, organism-based
[19] = Luminescence Cell-Based Dose Retest to Confirm Inhibitors of Cancer Stem Cells. [Related pubchem assays (depositor defined):AID2717, AID2721]; type: functional; conditions: Homo sapiens
[20] = NIH3T3 cell viability loss – ATP luminescence, mouse fibroblasts, counter-screen, dose response (AID 2010); type: functional, cell-based;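 also: cells exposed to compound for about 90 hours before reading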
[21] = MIN6 cell viability loss – mouse insulinoma, cytotoxicity control, dose response (AID 2122); type: functional;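 also: confirmatory high-throughput counterscreen run to flag cytotoxic compounds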
cells [22] = type: functional, cell-based; remark: listed apart in the source
Cytochrome P450 2C9 = Cytochrome P450 2C9 (Homo sapiens, UniProt P11712)
H4 = experiment: Luminescence Cell-Based Dose Response HTS to Identify Activators of 5'UTR Stem-Loop Driven Prion Protein mRNA Translation in H4 Neuroglioblastoma Cells. [Related pubchem assays: 1829 (Project Summary), 1814 (Primary HTS)]; type: functional; conditions: Homo sapiens
Protein skinhead-1 = target: T5, Protein skinhead-1 (Caenorhabditis elegans, UniProt P34707); type: functional
T5 sequence (P34707 whole entry): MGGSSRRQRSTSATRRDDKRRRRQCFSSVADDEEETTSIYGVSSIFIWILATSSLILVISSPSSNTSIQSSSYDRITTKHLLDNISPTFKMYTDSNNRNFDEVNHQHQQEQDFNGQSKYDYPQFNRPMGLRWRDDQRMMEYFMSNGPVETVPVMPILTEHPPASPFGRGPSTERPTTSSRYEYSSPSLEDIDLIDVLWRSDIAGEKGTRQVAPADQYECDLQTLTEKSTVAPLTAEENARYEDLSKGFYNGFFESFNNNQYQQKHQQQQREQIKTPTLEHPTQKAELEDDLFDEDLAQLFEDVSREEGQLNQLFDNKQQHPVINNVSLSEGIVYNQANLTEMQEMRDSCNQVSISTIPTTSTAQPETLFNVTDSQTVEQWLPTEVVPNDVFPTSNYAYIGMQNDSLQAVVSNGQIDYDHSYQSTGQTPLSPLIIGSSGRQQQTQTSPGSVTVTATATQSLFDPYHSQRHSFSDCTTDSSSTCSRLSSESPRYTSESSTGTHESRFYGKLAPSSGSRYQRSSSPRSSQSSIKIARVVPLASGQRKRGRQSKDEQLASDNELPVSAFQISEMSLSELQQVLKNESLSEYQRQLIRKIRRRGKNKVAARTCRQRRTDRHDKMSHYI

T3 sequence (Q00975 whole entry): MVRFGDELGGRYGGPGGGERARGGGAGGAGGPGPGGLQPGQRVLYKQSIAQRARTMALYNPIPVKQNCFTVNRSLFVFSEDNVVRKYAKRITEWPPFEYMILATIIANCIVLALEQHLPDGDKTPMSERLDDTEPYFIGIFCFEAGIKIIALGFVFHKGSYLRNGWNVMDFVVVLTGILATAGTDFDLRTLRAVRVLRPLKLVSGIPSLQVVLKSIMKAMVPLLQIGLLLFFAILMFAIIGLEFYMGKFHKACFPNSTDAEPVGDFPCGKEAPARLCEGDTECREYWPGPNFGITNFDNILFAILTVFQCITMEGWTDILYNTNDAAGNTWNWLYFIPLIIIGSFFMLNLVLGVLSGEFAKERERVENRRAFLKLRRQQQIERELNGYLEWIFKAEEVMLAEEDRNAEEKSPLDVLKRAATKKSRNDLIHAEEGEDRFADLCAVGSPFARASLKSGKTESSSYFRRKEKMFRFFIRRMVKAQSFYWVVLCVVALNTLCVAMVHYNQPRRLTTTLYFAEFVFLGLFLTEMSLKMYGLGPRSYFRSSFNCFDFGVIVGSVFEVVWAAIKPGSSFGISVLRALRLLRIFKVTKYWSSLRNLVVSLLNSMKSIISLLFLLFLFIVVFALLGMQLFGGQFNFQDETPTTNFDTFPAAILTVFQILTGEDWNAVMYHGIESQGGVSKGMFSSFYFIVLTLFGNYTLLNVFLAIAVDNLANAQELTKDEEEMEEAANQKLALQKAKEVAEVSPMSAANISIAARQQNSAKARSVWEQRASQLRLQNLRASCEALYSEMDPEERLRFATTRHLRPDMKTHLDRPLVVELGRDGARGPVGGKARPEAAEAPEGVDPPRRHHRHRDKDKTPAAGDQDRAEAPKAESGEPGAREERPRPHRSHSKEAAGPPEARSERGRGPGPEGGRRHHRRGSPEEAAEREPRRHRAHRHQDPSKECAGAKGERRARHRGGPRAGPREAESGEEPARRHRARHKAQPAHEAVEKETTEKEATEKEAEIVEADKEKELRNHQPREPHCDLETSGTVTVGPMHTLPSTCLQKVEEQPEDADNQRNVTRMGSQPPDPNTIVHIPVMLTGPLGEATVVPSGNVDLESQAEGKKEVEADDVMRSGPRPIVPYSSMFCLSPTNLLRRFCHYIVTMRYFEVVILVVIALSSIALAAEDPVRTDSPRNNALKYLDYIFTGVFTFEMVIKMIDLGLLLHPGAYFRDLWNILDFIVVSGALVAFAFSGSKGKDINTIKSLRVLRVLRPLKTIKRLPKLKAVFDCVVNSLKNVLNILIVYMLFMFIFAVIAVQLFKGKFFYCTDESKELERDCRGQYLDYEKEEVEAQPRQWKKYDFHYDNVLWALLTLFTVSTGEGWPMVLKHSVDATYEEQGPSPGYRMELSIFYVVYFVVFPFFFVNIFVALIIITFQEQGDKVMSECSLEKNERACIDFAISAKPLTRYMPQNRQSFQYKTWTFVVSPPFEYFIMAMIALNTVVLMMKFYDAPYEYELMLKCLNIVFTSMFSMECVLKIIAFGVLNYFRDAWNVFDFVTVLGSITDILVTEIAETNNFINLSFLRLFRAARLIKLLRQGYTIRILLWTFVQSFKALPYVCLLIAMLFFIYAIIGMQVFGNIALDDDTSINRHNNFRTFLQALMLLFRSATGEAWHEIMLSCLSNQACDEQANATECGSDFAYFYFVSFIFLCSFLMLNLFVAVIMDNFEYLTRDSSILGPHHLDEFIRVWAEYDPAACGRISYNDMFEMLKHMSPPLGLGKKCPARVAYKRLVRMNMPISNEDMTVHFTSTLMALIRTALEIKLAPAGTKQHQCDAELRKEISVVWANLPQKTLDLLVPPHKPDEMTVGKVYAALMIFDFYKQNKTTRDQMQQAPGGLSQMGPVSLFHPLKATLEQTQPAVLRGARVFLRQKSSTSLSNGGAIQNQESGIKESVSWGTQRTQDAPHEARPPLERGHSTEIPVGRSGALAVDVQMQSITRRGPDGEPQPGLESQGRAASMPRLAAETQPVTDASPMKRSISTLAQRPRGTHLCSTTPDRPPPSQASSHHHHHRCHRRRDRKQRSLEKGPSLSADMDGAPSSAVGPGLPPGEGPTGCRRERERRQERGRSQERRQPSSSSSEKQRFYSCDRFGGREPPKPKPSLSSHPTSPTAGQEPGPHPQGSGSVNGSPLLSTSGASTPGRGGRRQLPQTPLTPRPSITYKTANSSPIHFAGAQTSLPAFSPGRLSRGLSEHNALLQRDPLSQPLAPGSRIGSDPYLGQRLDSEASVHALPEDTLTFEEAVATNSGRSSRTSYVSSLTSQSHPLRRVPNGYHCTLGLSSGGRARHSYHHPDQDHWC
T3 sequence (Q02410 whole entry): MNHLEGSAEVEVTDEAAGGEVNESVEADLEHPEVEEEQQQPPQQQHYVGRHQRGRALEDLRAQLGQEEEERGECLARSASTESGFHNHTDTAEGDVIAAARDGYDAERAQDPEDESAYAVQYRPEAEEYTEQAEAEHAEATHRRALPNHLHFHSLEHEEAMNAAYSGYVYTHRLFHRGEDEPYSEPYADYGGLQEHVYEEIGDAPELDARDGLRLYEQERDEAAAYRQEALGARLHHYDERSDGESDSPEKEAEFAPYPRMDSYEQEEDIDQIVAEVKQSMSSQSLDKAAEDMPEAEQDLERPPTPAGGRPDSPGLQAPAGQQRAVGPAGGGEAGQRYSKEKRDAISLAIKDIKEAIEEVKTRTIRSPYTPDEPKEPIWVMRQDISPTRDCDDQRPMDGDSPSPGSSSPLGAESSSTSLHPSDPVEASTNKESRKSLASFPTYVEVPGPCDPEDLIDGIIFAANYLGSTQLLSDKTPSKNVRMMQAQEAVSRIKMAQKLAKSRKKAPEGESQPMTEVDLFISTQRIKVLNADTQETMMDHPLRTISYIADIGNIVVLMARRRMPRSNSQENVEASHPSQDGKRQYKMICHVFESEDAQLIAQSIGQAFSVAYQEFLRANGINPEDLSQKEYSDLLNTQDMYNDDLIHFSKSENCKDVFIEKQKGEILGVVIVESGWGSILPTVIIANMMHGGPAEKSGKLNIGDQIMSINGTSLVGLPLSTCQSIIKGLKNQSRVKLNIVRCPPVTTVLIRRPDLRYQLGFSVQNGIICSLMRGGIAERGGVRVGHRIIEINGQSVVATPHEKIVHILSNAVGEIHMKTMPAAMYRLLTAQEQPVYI
Cytochrome P450 3A4, sequence (P08684 whole entry): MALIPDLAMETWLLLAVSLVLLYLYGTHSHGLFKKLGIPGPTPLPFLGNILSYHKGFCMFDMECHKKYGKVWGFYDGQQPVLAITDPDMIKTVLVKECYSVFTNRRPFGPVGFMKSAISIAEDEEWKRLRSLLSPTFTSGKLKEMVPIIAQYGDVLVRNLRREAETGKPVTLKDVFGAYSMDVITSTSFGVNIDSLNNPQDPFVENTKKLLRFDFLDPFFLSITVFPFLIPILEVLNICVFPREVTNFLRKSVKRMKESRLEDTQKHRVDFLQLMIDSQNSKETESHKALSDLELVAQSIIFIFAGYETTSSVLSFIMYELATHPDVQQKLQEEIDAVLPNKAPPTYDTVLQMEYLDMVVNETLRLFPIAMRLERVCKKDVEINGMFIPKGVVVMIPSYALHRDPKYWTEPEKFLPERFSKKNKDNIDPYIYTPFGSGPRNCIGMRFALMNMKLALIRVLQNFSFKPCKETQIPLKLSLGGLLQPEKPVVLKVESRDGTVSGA
Genome polyprotein, sequence (P29990 2492-3391 limits assumed): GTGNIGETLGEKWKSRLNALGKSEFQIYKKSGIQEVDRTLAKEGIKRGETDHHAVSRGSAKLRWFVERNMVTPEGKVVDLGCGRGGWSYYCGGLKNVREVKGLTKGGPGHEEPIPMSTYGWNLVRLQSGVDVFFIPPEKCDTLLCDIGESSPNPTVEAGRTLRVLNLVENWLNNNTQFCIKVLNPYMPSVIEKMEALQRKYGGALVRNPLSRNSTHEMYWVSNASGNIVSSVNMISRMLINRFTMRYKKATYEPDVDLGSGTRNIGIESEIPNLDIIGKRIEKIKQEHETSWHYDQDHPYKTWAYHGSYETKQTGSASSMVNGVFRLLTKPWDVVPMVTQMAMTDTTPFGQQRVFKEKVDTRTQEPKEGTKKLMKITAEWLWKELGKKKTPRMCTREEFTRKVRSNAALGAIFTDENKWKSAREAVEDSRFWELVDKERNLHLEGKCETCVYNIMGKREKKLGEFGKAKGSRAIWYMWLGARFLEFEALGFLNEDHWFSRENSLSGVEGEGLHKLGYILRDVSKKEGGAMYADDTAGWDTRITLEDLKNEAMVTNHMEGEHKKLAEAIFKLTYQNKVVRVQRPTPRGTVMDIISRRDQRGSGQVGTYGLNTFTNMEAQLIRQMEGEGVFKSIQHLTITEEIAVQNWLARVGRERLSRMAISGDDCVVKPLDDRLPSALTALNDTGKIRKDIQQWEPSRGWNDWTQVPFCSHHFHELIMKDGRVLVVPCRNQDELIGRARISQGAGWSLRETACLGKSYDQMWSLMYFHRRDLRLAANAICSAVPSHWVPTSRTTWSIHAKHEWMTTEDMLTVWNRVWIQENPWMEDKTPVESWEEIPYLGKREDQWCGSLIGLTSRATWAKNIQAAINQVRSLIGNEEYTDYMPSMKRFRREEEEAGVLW
Cytochrome P450 2C9, sequence (P11712 whole entry): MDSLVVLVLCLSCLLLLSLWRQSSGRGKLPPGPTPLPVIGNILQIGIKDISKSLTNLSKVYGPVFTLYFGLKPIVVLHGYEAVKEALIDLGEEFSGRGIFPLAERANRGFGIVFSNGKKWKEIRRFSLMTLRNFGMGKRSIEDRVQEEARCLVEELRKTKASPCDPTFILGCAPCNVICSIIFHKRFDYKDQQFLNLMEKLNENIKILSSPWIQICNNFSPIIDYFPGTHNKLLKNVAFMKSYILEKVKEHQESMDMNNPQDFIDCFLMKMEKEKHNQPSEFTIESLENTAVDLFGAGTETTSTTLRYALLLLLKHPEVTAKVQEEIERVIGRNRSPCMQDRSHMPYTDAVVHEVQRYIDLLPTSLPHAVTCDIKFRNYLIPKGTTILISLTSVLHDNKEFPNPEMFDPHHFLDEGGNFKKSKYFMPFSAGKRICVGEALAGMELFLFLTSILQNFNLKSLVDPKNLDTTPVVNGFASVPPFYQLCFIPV

CCC[C@H]1CN(c2ccccc2)C(=O)[C@@H]1CC(=O)Nc1ccc(Br)cc1
IC50 [1]: > 67.5 µM (inactive)
IC50 (HEK293): > 67.5 µM (inactive)

COc1ccc(N2CCN(C(=O)C3CCN(S(=O)(=O)c4ccc(C)cc4)CC3)CC2)cc1
IC50 [1]: > 67.5 µM (inactive)
IC50 (HEK293): > 67.5 µM (inactive)

Cc1ccc2nc(C)c(CN3CCN(c4ccc([N+](=O)[O-])cc4Cl)CC3)n2c1
EC50 [2]: > 120 µM (not active)
EC50 [3]: > 120 µM (not active)
EC50 [4]: 17.1 µM (active)
AC50 (INS1): 1.79 µM (active)
IC50 [5]: > 80 µM (inactive)

CC(C)N1C/C(=C/c2ccsc2)C(=O)/C(=C/c2ccsc2)C1
CC50 (Vero [6]): 5.33 µM (active)
EC50 [7]: 1.39 µM (active)
IC50 (Vero [8]): > 25 µM (active)
EC50 [9]: 1.34 µM (active)

Clc1ccccc1-c1cc(NCc2ccccc2)ncn1
AC50 (Cytochrome P450 3A4): inconclusive
AC50 (Cytochrome P450 2D6): 20 µM (inconclusive)

CS(=O)(=O)Nc1ccc(S(=O)(=O)N2CCOCC2)cc1
AC50 (Cytochrome P450 3A4): inconclusive

Cc1ccc(/C=C/C(=O)c2c(C)nc3ccccn23)cc1
CC50 (Vero [6]): 17.6 µM (active)
IC50 (Vero [8]): > 25 µM (active)

COC(=O)N1CCC2(CC1)CCN(c1cccc(-c3ccccc3)c1)CC2
AC50 (Cytochrome P450 3A4): inconclusive

Cc1ccccc1C(=O)Nc1ccc2c(c1)CCCN2C(=O)c1cccs1
CC50 (Vero [6]): > 25 µM (active)
IC50 (Vero [8]): 7.77 µM (active)

CN(Cc1ccccc1Cl)C(=O)CCNC(=O)c1ccco1
IC50 [1]: > 67.5 µM (inactive)
IC50 (HEK293): > 67.5 µM (inactive)

NNc1cc([N+](=O)[O-])cc2c1c(=O)n(Cc1ccccc1)[s+]2[O-] (centres undefined)
IC50 [10]: 52.3 µM (active)
IC50 (Genome polyprotein): 63.4 µM (active)
IC50 [11]: 10.3 µM (active)
IC50 [12]: > 50 µM (inactive)

Cc1ccc(-c2nn(-c3ccccc3)cc2/C=C/C(=O)O)o1
IC50 [11]: 17.6 µM (active)
IC50 [12]: 30.9 µM (active)

C=CCn1c(SCC(=O)c2cccs2)nc2sc(C)c(C)c2c1=O
IC50 (Vero [8]): 24.8 µM (active)

COc1ccc(N2C(=O)CC(Sc3nnnn3-c3ccc(F)cc3)C2=O)cc1 (centres undefined)
AC50 [13]: 26.6 µM (active)
IC50 [11]: 11 µM (active)
EC50 [14]: 17.1 µM (active)
IC50 [12]: 3.95 µM (active)
AC50 (Paired box protein Pax-8): 13.6 µM (active)

O=C(N/N=C/c1cc(Br)ccc1O)C(=O)Nc1ccccc1OC(F)(F)C(F)F
EC50 [15]: 0.572 µM (active)
EC50 (cells [16]): > 350 µM (not active)
IC50 [17]: 1.93 µM (active)
EC50 (Streptococcus): 1.82 µM (active)
EC50 [18]: 0.866 µM (active)
AC50 [19]: 1.62 µM (active)
EC50 [20]: 8.61 µM (active)
IC50 [21]: 2.22 µM (active)
AC50 (INS1): 2.17 µM (active)
EC50 (cells [22]): 10.9 µM (active)

O=[N+]([O-])c1ccc2nc(-c3ccc(Cl)cc3)n(OCc3ccccc3)c2c1
AC50 (Cytochrome P450 3A4): inconclusive
AC50 (Cytochrome P450 2C9): 22.4 µM (inconclusive)
EC50 (H4): 0.973 µM (active)
IC50 (Protein skinhead-1): > 100 µM (inactive)
